SMILES strings stand for the structures.

Data set [1] in a line: distribution in the rat after oral administration. The data set is classed as in vivo.
Data set [2] is described as follows: pharmacokinetic studies on laboratory animals monitoring plasma carnosine content by liquid chromatography-ESI triple quadrupole mass spectrometry. The data set is classed as in vivo.
Data set [3] is described as follows: detoxification of alpha, beta-unsaturated carbonyl compounds. The settings on record: compared with L-carnosine.

Take `NCCC(=O)N[C@H](Cc1c[nH]cn1)C(=O)O` [D-carnosine, β-alanyl-D-histidine]: the “distribution in the lung” value in data set [1] was “distributed in the lung”. The gastrointestinal absorption result in data set [2] is listed as “poor gastrointestinal absorption”. For the same compound, the “detoxification of the alpha, beta-unsaturated carbonyl compounds” value in data set [3] is given as “performs the same detoxification”.

For the origin of these results see US20090306165A1, “DIPEPTIDE COMPOUNDS CONTAINING D-HISTIDINE” (priority 2006, published 2009).
